# Laboratory results: patent US20140315786A1, “USE OF INTRACELLULAR ENZYMES FOR THE RELEASE OF COVALENTLY LINKED BIOACTIVES” (Catabasis Pharmaceuticals, Inc., priority 2011, published 2014)
# Test system: IL-1β
# Experiment: IL-1β transcript levels in LPS-stimulated RAW264.7 macrophages
# Type: cell-based
# Settings: Mus musculus; RAW264.7, LPS 100 ng/ml; linked bioactive
# Description: RAW264.7 macrophages were seeded at a density of 100,000 cells/well in a 96-well plate in DMEM supplemented with 10% FBS and penicillin:streptomycin. 16 hours later, medium was aspirated and replaced with 90 μL/well of serum-free DMEM. Linked bioactives were brought up in 100% ethanol to a concentration of 100 mM and then diluted 1:100 in 100% FBS for a stock solution consisting of 1 mM compound and 1% ethanol. These stock solutions were then diluted 1:10 in FBS supplemented with 1% ethanol to generate a 100 μM of the linked bioactives. 10 μL was then added to the RAW246.7 cells to generate final concentrations 10 μM of the linked bioactives or 10 μM each bioactive, along with vehicle only control. The linked bioactives were allowed to pre-incubate for 2 hours before stimulation of 100 ng/ml LPS (10 μL of 1 μg/ml LPS was added to each well). Following 3 hours of LPS stimulation, cells were washed once in 1×PBS, aspirated dry, and flash frozen in liquid nitrogen. RNA was then isolated and converted to cDNA using the Cells to cDNA kit (AMBION®) according to the manufacturer's protocol. IL-1β transcript levels were then measured using Taqman primer/probe assay sets (APPLIED BIOSYSTEMS®), normalized to GAPDH using the deltaCt method, and the data expressed relative to vehicle only control.
structure (smiles),measurement,value
"CC/C=C\C/C=C\C/C=C\C/C=C\C/C=C\C/C=C\CCC(=O)N[C@@H](C)C(=O)O[C@H](C)[C@H](NC(=O)CC/C=C\C/C=C\C/C=C\C/C=C\C/C=C\C/C=C\CC)C(=O)OC [VI-2, (2S,3R)-2-((4Z,7Z,10Z,13Z,16Z,19Z)-docosa-4,7,10,13,16,19-hexaenoylamino)-3-[(S)-2-((4Z,7Z,10Z,13Z,16Z,19Z)-docosa-4,7,10,13,16,19-hexaenoylamino)-propionyloxy]-butyric acid methyl ester]",IC50,10 µM
